# Data taken from article PMC8518114, “Safety, tolerability and pharmacokinetics of emodepside, a potential novel treatment for onchocerciasis (river blindness), in healthy male subjects” (British Journal of Clinical Pharmacology, 2021).
# Test system: healthy male subjects
# Assay: Safety: treatment-emergent adverse events, SAD study
# Assay type: in vivo, human
# Method: Safety was assessed by monitoring adverse events (AEs) throughout the studies that were coded using the standard Medical Dictionary for Regulatory Activities (MedDRA) dictionary (versions 19.0 [SAD part 1], 20.0 [SAD part 2] and 21.1 [MAD]). Other safety monitoring included 12‐lead electrocardiography recordings, measurement of vital signs (systolic and diastolic blood pressure and heart rate), physical and neurological (Hamilton depression rating scale[17] and Beck depression inventory‐II fastscreen[18] [SAD only], mental status examination, cranial nerves assessment and motor system examination, sensation to light touch, coordination/cerebellar function assessment, Romberg's test, gait test, daytime sleepiness assessment [SAD and MAD studies]) examinations, haematology, biochemistry and urinalysis. To minimise risks in the SAD and MAD studies, subjects were dosed sequentially using sentinels in each cohort (1 IP, 1 placebo) as per European Medicines Agency guidelines.[19] If the previous dose was well tolerated, with no safety concerns, dose escalation was decided by the Safety Review Group after reviewing safety and PK data from all available cohorts. Moreover, treatment with the highest dose in the SAD study was repeated (cohort 10) for regular ophthalmological evaluations (assessments available as supplementary information) to better characterise visual AEs observed in the SAD study. Regular ophthalmological assessments were also performed in the MAD study.
smiles,measurement,setting,value
CC(C)C[C@H]1C(=O)O[C@H](Cc2ccc(N3CCOCC3)cc2)C(=O)N(C)[C@@H](CC(C)C)C(=O)O[C@H](C)C(=O)N(C)[C@@H](CC(C)C)C(=O)O[C@H](Cc2ccc(N3CCOCC3)cc2)C(=O)N(C)[C@@H](CC(C)C)C(=O)O[C@H](C)C(=O)N1C [emodepside],Any TEAE,"SAD Part 1, 0.1 mg LSF n = 1",1 (100) n (%)
same,TEAE: Eye disorders,"SAD Part 1, 0.1 mg LSF n = 1",0 n (%)
same,TEAE: Gastrointestinal disorders,"SAD Part 1, 0.1 mg LSF n = 1",0 n (%)
same,TEAE: General disorders and administration site disorders,"SAD Part 1, 0.1 mg LSF n = 1",0 n (%)
same,TEAE: Infections and infestations,"SAD Part 1, 0.1 mg LSF n = 1",1 (100) n (%)
same,"TEAE: Injury, poisoning and procedural complications","SAD Part 1, 0.1 mg LSF n = 1",0 n (%)
same,TEAE: Musculoskeletal and connective tissue disorders,"SAD Part 1, 0.1 mg LSF n = 1",0 n (%)
same,TEAE: Nervous system disorders,"SAD Part 1, 0.1 mg LSF n = 1",0 n (%)
same,TEAE: Psychiatric disorders,"SAD Part 1, 0.1 mg LSF n = 1",0 n (%)
same,"TEAE: Respiratory, thoracic and mediastinal disorders","SAD Part 1, 0.1 mg LSF n = 1",0 n (%)
same,Any TEAE,"SAD Part 1, 1 mg LSF n = 5",3 (60.0) n (%)
same,TEAE: Eye disorders,"SAD Part 1, 1 mg LSF n = 5",0 n (%)
same,TEAE: Gastrointestinal disorders,"SAD Part 1, 1 mg LSF n = 5",0 n (%)
same,TEAE: General disorders and administration site disorders,"SAD Part 1, 1 mg LSF n = 5",0 n (%)
same,TEAE: Infections and infestations,"SAD Part 1, 1 mg LSF n = 5",0 n (%)
same,"TEAE: Injury, poisoning and procedural complications","SAD Part 1, 1 mg LSF n = 5",0 n (%)
same,TEAE: Musculoskeletal and connective tissue disorders,"SAD Part 1, 1 mg LSF n = 5",1 (20.0) n (%)
same,TEAE: Nervous system disorders,"SAD Part 1, 1 mg LSF n = 5",2 (40.0) n (%)
same,TEAE: Psychiatric disorders,"SAD Part 1, 1 mg LSF n = 5",0 n (%)
same,"TEAE: Respiratory, thoracic and mediastinal disorders","SAD Part 1, 1 mg LSF n = 5",0 n (%)
same,Any TEAE,"SAD Part 1, 2.5 mg LSF n = 6",0 n (%)
same,TEAE: Eye disorders,"SAD Part 1, 2.5 mg LSF n = 6",0 n (%)
same,TEAE: Gastrointestinal disorders,"SAD Part 1, 2.5 mg LSF n = 6",0 n (%)
same,TEAE: General disorders and administration site disorders,"SAD Part 1, 2.5 mg LSF n = 6",0 n (%)
same,TEAE: Infections and infestations,"SAD Part 1, 2.5 mg LSF n = 6",0 n (%)
same,"TEAE: Injury, poisoning and procedural complications","SAD Part 1, 2.5 mg LSF n = 6",0 n (%)
same,TEAE: Musculoskeletal and connective tissue disorders,"SAD Part 1, 2.5 mg LSF n = 6",0 n (%)
same,TEAE: Nervous system disorders,"SAD Part 1, 2.5 mg LSF n = 6",0 n (%)
same,TEAE: Psychiatric disorders,"SAD Part 1, 2.5 mg LSF n = 6",0 n (%)
same,"TEAE: Respiratory, thoracic and mediastinal disorders","SAD Part 1, 2.5 mg LSF n = 6",0 n (%)
same,Any TEAE,"SAD Part 1, 5 mg IRT n = 5",3 (60.0) n (%)
same,TEAE: Eye disorders,"SAD Part 1, 5 mg IRT n = 5",1 (20.0) n (%)
same,TEAE: Gastrointestinal disorders,"SAD Part 1, 5 mg IRT n = 5",0 n (%)
same,TEAE: General disorders and administration site disorders,"SAD Part 1, 5 mg IRT n = 5",0 n (%)
same,TEAE: Infections and infestations,"SAD Part 1, 5 mg IRT n = 5",0 n (%)
same,"TEAE: Injury, poisoning and procedural complications","SAD Part 1, 5 mg IRT n = 5",0 n (%)
same,TEAE: Musculoskeletal and connective tissue disorders,"SAD Part 1, 5 mg IRT n = 5",1 (20.0) n (%)
same,TEAE: Nervous system disorders,"SAD Part 1, 5 mg IRT n = 5",1 (20.0) n (%)
same,TEAE: Psychiatric disorders,"SAD Part 1, 5 mg IRT n = 5",1 (20.0) n (%)
same,"TEAE: Respiratory, thoracic and mediastinal disorders","SAD Part 1, 5 mg IRT n = 5",0 n (%)
same,Any TEAE,"SAD Part 1, 5 mg LSF n = 6",3 (50.0) n (%)
same,TEAE: Eye disorders,"SAD Part 1, 5 mg LSF n = 6",0 n (%)
same,TEAE: Gastrointestinal disorders,"SAD Part 1, 5 mg LSF n = 6",1 (16.7) n (%)
same,TEAE: General disorders and administration site disorders,"SAD Part 1, 5 mg LSF n = 6",2 (33.3) n (%)
same,TEAE: Infections and infestations,"SAD Part 1, 5 mg LSF n = 6",1 (16.7) n (%)
same,"TEAE: Injury, poisoning and procedural complications","SAD Part 1, 5 mg LSF n = 6",0 n (%)
same,TEAE: Musculoskeletal and connective tissue disorders,"SAD Part 1, 5 mg LSF n = 6",1 (16.7) n (%)
same,TEAE: Nervous system disorders,"SAD Part 1, 5 mg LSF n = 6",1 (16.7) n (%)
same,TEAE: Psychiatric disorders,"SAD Part 1, 5 mg LSF n = 6",0 n (%)
same,"TEAE: Respiratory, thoracic and mediastinal disorders","SAD Part 1, 5 mg LSF n = 6",0 n (%)
same,Any TEAE,"SAD Part 1, 10 mg LSF n = 6",5 (83.3) n (%)
same,TEAE: Eye disorders,"SAD Part 1, 10 mg LSF n = 6",2 (33.3) n (%)
same,TEAE: Gastrointestinal disorders,"SAD Part 1, 10 mg LSF n = 6",0 n (%)
same,TEAE: General disorders and administration site disorders,"SAD Part 1, 10 mg LSF n = 6",0 n (%)
same,TEAE: Infections and infestations,"SAD Part 1, 10 mg LSF n = 6",1 (16.7) n (%)
same,"TEAE: Injury, poisoning and procedural complications","SAD Part 1, 10 mg LSF n = 6",0 n (%)
same,TEAE: Musculoskeletal and connective tissue disorders,"SAD Part 1, 10 mg LSF n = 6",0 n (%)
